Earlier results in patent US20200085783A1 (priority 2013, published 2020).

Experiments:
[1] = molecular target: NaK pump (Rattus norvegicus, UniProt P06685)
[2] = read-out: in vitro IC50 growth inhibitory effects

| Structure (SMILES) | decrease in sensitivity of rodent compared to human cells [1] | IC50 [2] |
| --- | --- | --- |
| C[C@@H]1C[C@@]2(NC(=O)CS2)[C@]2(O)O[C@@H]3C[C@@]4(CO)[C@@H](CC[C@@H]5[C@@H]4CC[C@]4(C)[C@@H](C6=CC(=O)OC6)CC[C@]54O)C[C@H]3O[C@@H]2O1 [UNBS1450] | 100-1000 times | – |
| C[C@@H]1O[C@@H](O[C@H]2C[C@@H](O)[C@]3(CO)[C@H]4[C@H](O)C[C@]5(C)[C@@H](C6=CC(=O)OC6)CC[C@]5(O)[C@@H]4CC[C@]3(O)C2)[C@H](O)[C@H](O)[C@H]1O [ouabain] | – | 10 to 100 nM |
